In patent publication US12527779B2, “Prostaglandin E2 (PGE2) EP4 receptor antagonists” (Domain Therapeutics, priority 2019, dated 2026):

Experiments:
[1] = target: T1, human EP4 (hEP4) receptor (Homo sapiens, UniProt P35408); assay: In vitro human EP4 functional antagonist activity using BRET biosensors (cAMP EPAC biosensor, TCS2510 stimulation); type: cell-based; details: antagonist activity vs EC60 TCS2510, hEP4 in HEK-293 T cells
T1 construct: expressed in transfected cells; host or cells: HEK-293 T cells, transient co-transfection with polyethylenimine
In short: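 HEK-293T cells transiently co-transfected with hEP4 and EPAC cAMP BRET biosensor (luciferase/GFP), assayed 48 h later in HEPES-buffered saline after 1 h at 22 °C. After 5 min with compound, cells stimulated with EC60 TCS2510 and BRET read for 10 min; IC50 from 10-point, 4.5-log variable-slope fits, duplicate, two experiments.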

[2] = tested on: Pan02 tumor cells; assay: In vivo anti-tumoral activity of Example 166 in a Pan02 tumor model; parameters: species or system C57BL/6 mice
Method: Pan02 tumor cells were maintained in vitro as a monolayer culture in RPM11640 medium supplemented with 10% fetal bovine serum at 37° C. in an atmosphere of 5% CO2 in air. The cells were routinely subcultured twice weekly by trypsin-EDTA treatment. The cells in an exponential growth phase were harvested and counted for tumor inoculation. Female C57BL/6 mice were inoculated subcutaneously in the right rear flank region with Pan02 tumor cells (3×10^6) in 0.1 ml of PBS for tumor development on day 0. Tumor volumes were measured thrice per week in two dimensions using a caliper, and the volume was expressed in mm^3 using the formula: “V=(L×W×W)/2”, where V is tumor volume, L is tumor length (the longest tumor dimension) and W is tumor width (the longest tumor dimension perpendicular to L). When the mean tumor size reached approximately 100 mm^3, mice were randomly allocated into groups (10 mice per group) and treated with or without the compound of Example 166 (3, 10, 30, 100 or 300 mg/kg, po, QD, 5% DMSO/95% (10% w/v solution of HP-β-CD in water) v/v) for at least 3 weeks). Animals were checked daily for morbidity and mortality. During routine monitoring, the animals were checked for any effects on tumor growth and treatments on behavior such as mobility, food and water consumption, body weight gain/loss (body weights were measured thrice per week), eye/hair matting and any other abnormalities. Dosing as well as tumor and body weight measurements were conducted in a Laminar Flow Cabinet. The body weights and tumor volumes were monitored by using StudyDirector™ software (version 3.1.399.19).

T1 sequence (P35408 whole entry): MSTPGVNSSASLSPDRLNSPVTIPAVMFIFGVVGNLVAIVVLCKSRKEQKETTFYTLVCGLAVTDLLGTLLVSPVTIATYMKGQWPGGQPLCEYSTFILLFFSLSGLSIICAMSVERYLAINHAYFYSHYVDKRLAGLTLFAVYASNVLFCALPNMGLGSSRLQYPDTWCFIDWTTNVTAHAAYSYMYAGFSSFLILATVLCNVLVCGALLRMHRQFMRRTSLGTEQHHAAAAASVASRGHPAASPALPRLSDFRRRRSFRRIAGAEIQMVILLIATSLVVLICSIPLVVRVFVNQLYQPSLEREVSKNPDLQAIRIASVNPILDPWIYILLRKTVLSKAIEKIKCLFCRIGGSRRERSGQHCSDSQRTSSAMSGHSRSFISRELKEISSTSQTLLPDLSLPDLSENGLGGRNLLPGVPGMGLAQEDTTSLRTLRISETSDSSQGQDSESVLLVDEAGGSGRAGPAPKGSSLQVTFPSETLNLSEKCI

- IC50 [1]: < 0.1 µM
Compound: C[C@H](NC(=O)C1(N2CC[C@@H](Oc3cccc(C(F)(F)F)c3)C2)CC1)c1ccc(C(=O)O)cc1.Cl [Example 166, 4-[(1S)-1-[[1-[(3R)-3-[3-(Trifluoromethyl)phenoxy]pyrrolidin-1-yl]cyclopropane-1-carbonyl]amino]ethyl]benzoic acid, hydrochloride]
- Tumor Growth Inhibition TGI (%) ([2]; 3 mg/kg po QD, day 0): 0.0%
- Tumor Growth Inhibition TGI (%) ([2]; 3 mg/kg po QD, day 4): 8.2%
- Tumor Growth Inhibition TGI (%) ([2]; 3 mg/kg po QD, day 7): 2.9%
- Tumor Growth Inhibition TGI (%) ([2]; 3 mg/kg po QD, day 9): 2.3%
- Tumor Growth Inhibition TGI (%) ([2]; 3 mg/kg po QD, day 11): −8.0%
- Tumor Growth Inhibition TGI (%) ([2]; 3 mg/kg po QD, day 14): −5.6%
- Tumor Growth Inhibition TGI (%) ([2]; 3 mg/kg po QD, day 16): 10.7%
- Tumor Growth Inhibition TGI (%) ([2]; 3 mg/kg po QD, day 18): 9.1%
- Tumor Growth Inhibition TGI (%) ([2]; 3 mg/kg po QD, day 21): −1.4%
- Tumor Growth Inhibition TGI (%) ([2]; 10 mg/kg po QD, day 0): 0.0%
- Tumor Growth Inhibition TGI (%) ([2]; 10 mg/kg po QD, day 4): 14.3%
- Tumor Growth Inhibition TGI (%) ([2]; 10 mg/kg po QD, day 7): −2.3%
- Tumor Growth Inhibition TGI (%) ([2]; 10 mg/kg po QD, day 9): 0.8%
- Tumor Growth Inhibition TGI (%) ([2]; 10 mg/kg po QD, day 11): 2.4%
- Tumor Growth Inhibition TGI (%) ([2]; 10 mg/kg po QD, day 14): 11.1%
- Tumor Growth Inhibition TGI (%) ([2]; 10 mg/kg po QD, day 16): 21.1%
- Tumor Growth Inhibition TGI (%) ([2]; 10 mg/kg po QD, day 18): 22.4%
- Tumor Growth Inhibition TGI (%) ([2]; 10 mg/kg po QD, day 21): 16.2%
- Tumor Growth Inhibition TGI (%) ([2]; 30 mg/kg po QD, day 0): 0.0%
- Tumor Growth Inhibition TGI (%) ([2]; 30 mg/kg po QD, day 4): 17.5%
- Tumor Growth Inhibition TGI (%) ([2]; 30 mg/kg po QD, day 7): 19.0%
- Tumor Growth Inhibition TGI (%) ([2]; 30 mg/kg po QD, day 9): 16.3%
- Tumor Growth Inhibition TGI (%) ([2]; 30 mg/kg po QD, day 11): −8.2%
- Tumor Growth Inhibition TGI (%) ([2]; 30 mg/kg po QD, day 14): 5.7%
- Tumor Growth Inhibition TGI (%) ([2]; 30 mg/kg po QD, day 16): 9.7%
- Tumor Growth Inhibition TGI (%) ([2]; 30 mg/kg po QD, day 18): 13.9%
- Tumor Growth Inhibition TGI (%) ([2]; 30 mg/kg po QD, day 21): 7.4%
- Tumor Growth Inhibition TGI (%) ([2]; 100 mg/kg po QD, day 0): 0.0%
- Tumor Growth Inhibition TGI (%) ([2]; 100 mg/kg po QD, day 4): 17.1%
- Tumor Growth Inhibition TGI (%) ([2]; 100 mg/kg po QD, day 7): 21.4%
- Tumor Growth Inhibition TGI (%) ([2]; 100 mg/kg po QD, day 9): 20.8%
- Tumor Growth Inhibition TGI (%) ([2]; 100 mg/kg po QD, day 11): 23.7%
- Tumor Growth Inhibition TGI (%) ([2]; 100 mg/kg po QD, day 14): 44.3%
- Tumor Growth Inhibition TGI (%) ([2]; 100 mg/kg po QD, day 16): 42.2%
- Tumor Growth Inhibition TGI (%) ([2]; 100 mg/kg po QD, day 18, hydrochloride): 48.2%
- Tumor Growth Inhibition TGI (%) ([2]; 100 mg/kg po QD, day 21): 42.6%
- Tumor Growth Inhibition TGI (%) ([2]; 300 mg/kg po QD, day 0): 0.0%
- Tumor Growth Inhibition TGI (%) ([2]; 300 mg/kg po QD, day 4): 14.3%
- Tumor Growth Inhibition TGI (%) ([2]; 300 mg/kg po QD, day 7): −2.5%
- Tumor Growth Inhibition TGI (%) ([2]; 300 mg/kg po QD, day 9): −0.7%
- Tumor Growth Inhibition TGI (%) ([2]; 300 mg/kg po QD, day 11): −5.6%
- Tumor Growth Inhibition TGI (%) ([2]; 300 mg/kg po QD, day 14): 11.8%
- Tumor Growth Inhibition TGI (%) ([2]; 300 mg/kg po QD, day 16): 24.7%
- Tumor Growth Inhibition TGI (%) ([2]; 300 mg/kg po QD, day 18, hydrochloride): 32.9%
- Tumor Growth Inhibition TGI (%) ([2]; 300 mg/kg po QD, day 21): 32.8%
